From patent US5036008A, “Antitumor antibiotic BU-3285T” (Bristol-Myers Company, priority 1990, dated 1991)
≈ marks a conversion by molar mass, not a printed value.

Legend:
A. flavus FA21436 = assay: In vitro antifungal activity, serial agar dilution; conditions: Aspergillus flavus, FA21436, 40 h, pH 7
Procedure: (§4) In vitro antifungal activity was determined against various fungi by the serial agar dilution method. Sabouraud dextrose agar (pH 7.0) was used for the experiment. The inoculum size was adjusted to 10^6 CFU/ml. After incubation at 28° C. for 40 hours, the minimum inhibitory concentration (MIC) was examined.

[1] = test system: Trichophyton mentagrophytes D155; assay: In vitro antifungal activity, serial agar dilution; conditions: D155, 40 h, pH 7
Procedure: as §4

Candida albicans IAM4888 = assay: In vitro antifungal activity, serial agar dilution; conditions: IAM4888, 40 h, pH 7
Procedure: as §4

[2] = test system: Cryptococcus neoformans D49; assay: In vitro antifungal activity, serial agar dilution; conditions: D49, 40 h, pH 7
Procedure: as §4

C. albicans A9540 = assay: In vitro antifungal activity, serial agar dilution; conditions: Candida albicans, A9540, 40 h, pH 7
Procedure: as §4

Mucor spinosus IF05317 = assay: In vitro antifungal activity, serial agar dilution; conditions: IF05317, 40 h, pH 7
Procedure: as §4

T. mentagrophytes #4329 = assay: In vitro antifungal activity, serial agar dilution; conditions: Trichophyton mentagrophytes, 40 h, pH 7
Procedure: as §4

[3] = test system: Blastomyces dermatidis D40; assay: In vitro antifungal activity, serial agar dilution; conditions: D40, 40 h, pH 7
Procedure: as §4

Piricularia oryzae D91 = assay: microbe, parasite or virus in culture; format: cell-based; conditions: 40 h, pH 7
[4] = test system: Petriellidium boydii IF08078; assay: In vitro antifungal activity, serial agar dilution; conditions: Scedosporium boydii, IF08078, 40 h, pH 7
Procedure: as §4

[5] = test system: Sporothrix schenckii IF08158; assay: microbe, parasite or virus in culture; conditions: IF08158, 40 h, pH 7
Procedure: as §4

[6] = test system: Aspergillus fumigatus IAM2530; assay: In vitro antifungal activity, serial agar dilution; conditions: IAM2530, 40 h, pH 7
Procedure: as §4

A. fumigatus IAM2034 = assay: microbe, parasite or virus in culture; conditions: Aspergillus fumigatus, IAM2034, 40 h, pH 7
Procedure: as §4

C. neoformans IAM4514 = assay: In vitro antifungal activity, serial agar dilution; conditions: Cryptococcus neoformans, IAM4514, 40 h, pH 7
Procedure: as §4

[7] = test system: Fusarium moniliforme A2284; assay: In vitro antifungal activity, serial agar dilution; conditions: Fusarium verticillioides, A2284, 40 h, pH 7
Procedure: as §4

P388 leukemia = assay: In vivo antitumor activity against P388 leukemia (Table 8); conditions: Q1D × 3
[8] = test system: B16-F10 (murine melanoma) cells; assay: In vitro cytotoxicity (Table 6); format: cell-based; conditions: Mus musculus; B16-F10, 72 hrs, neutral red
Procedure: (§1) BU-3285T was tested for in vitro cytotoxicity against several murine and human tumor cell lines and for in vivo antitumor activity in mice. Mitomycin C was used as a reference compound in both in vitro and in vivo experiments. B16-F10 (murine melanoma) and Moser (human colorectal carcinoma) cells were grown to the logarithmic phase in an enriched Eagle minimum essential medium supplemented with fetal calf serum (FCS, 10%) and kanamycin (60 μg/ml); HCT-116 (human colon carcinoma) cells were in McCoy's 5A medium supplemented with FCS (10%), penicillin (100 U/ml) and streptomycin (100 μg/ml); and P388 (murine lymphocytic leukemia) cells and its vincristine-resistant subline (P388/VCR) were in RPMI 1640 medium supplemented with FCS (10%), penicillin (100 U/ml) and streptomycin (100 μg/ml).
(§2) B16-F10, Moser, HCT-116 and P388 cells were harvested and implanted into wells of a 96-well (for B16-F10, Moser and HCT-116 cells) or a 24-well (for P388 cells) tissue culture plate with test materials at the inoculum sizes of 3×10^4, 6 ×10^4, 6×10^4 and 2×10^4 cells/ml, respectively. They were incubated at 37° C. in a humidified atmosphere of 5% CO2 and 95% air for 72 hrs. […] For P388 cells, the number of viable cells was determined by a Coulter counter.

[9] = test system: HCT-116 (human colon carcinoma) cells; assay: In vitro cytotoxicity (Table 6); format: cell-based; conditions: HCT-116, 72 hrs, neutral red
Procedure: as §1, §2

[10] = test system: RNA biosynthesis in L1210 leukemia cells; assay: Inhibition of macromolecule biosynthesis, RNA (Table 7); format: cell-based, murine; conditions: Mus musculus, labelled precursor, 15 min + 60 min, 37° C., read-out: IC50, RNA synthesis
Procedure: (§3) Inhibitory effects of BU-3285T on macromolecule biosynthesis (DNA, RNA and protein) were determined in cultured L1210 murine leukemia cells. The cells (5×10^5 cells/ml) were incubated with the compound at 37° C. for 15 minutes and then further incubated for 60 minutes after the addition of labelled precursor, ^3 H-thymidine, ^14 C-uridine or ^3 H-leucine into the cultured mixture. After washing with chilled 5% trichloroacetic acid solution, the radioactivity incorporated into the acid-insoluble fraction of the cells was determined by a liquid scintillation counter.

L1210 leukemia = assay: In vivo antitumor activity against L1210 leukemia (Table 9); conditions: Q1D × 3
[11] = test system: DNA biosynthesis in L1210 leukemia cells; assay: Inhibition of macromolecule biosynthesis, DNA (Table 7); format: cell-based, murine; conditions: Mus musculus, L1210; 3H-thymidine, ^14 C-uridine or 3H-leucine precursor; 15 min + 60 min, 37° C.; read-out: IC50, DNA synthesis
Procedure: as §3

[12] = test system: Moser (human colorectal carcinoma) cells; assay: In vitro cytotoxicity (Table 6); conditions: Homo sapiens, 72 h
Procedure: as §1, §2

[13] = test system: protein biosynthesis in L1210 leukemia cells; assay: Inhibition of macromolecule biosynthesis, protein (Table 7); format: cell-based, murine; conditions: Mus musculus, L1210; labelled precursor; 15 min + 60 min, 37° C.; read-out: IC50, protein synthesis
Procedure: as §3

[14] = test system: A549/VP29 (etoposide-resistant subline of A549) cells; assay: In vitro cytotoxicity (Table 14); conditions: A549/VP29, 72 hours, neutral red
Procedure: After planting 180 μl of cell suspension into wells of a 96-well microtiter plate on day 0, the test materials (20 μl) were added on day 1 and the plates were incubated for 72 hours. The cytotoxic activity was colorimetrically determined at 540 nm after staining viable cells with neutral red solution.

[15] = test system: HCT-116 (human colon carcinoma) cells; assay: In vitro cytotoxicity (Table 14); format: cell-based; conditions: HCT-116, 72 h
Procedure: (§5) B16-F10 (murine melanoma), HCT-116 (human colon carcinoma), A549 (human lung carcinoma) and A549/VP29 (an etoposide-resistant subline of A549) were grown in Eagle's MEM (Nissui) supplemented with FCS (fetal calf serum, 10%) and non-essential amino acids (B16-F10), or in McCoy's 5A medium (Gibco) with FCS (10%), essential and non-essential amino acids, vitamins and antibiotics (HCT-116 and both of A549) at 37° C. under a humidified atmosphere in a 5% CO2 incubator. Exponentially growing B16-F10, HCT-116 and A549 cells were harvested, counted and suspended in the culture medium at 1.5×10^4, 3×10^4 and 3×10^4 cells/ml, respectively. After planting 180 μl of cell suspension into wells of a 96-well microtiter plate on day 0, the test materials (20 μl) were added on day 1 and the plates were incubated for 72 hours. The cytotoxic activity was colorimetrically determined at 540 nm after staining viable cells with neutral red solution.

[16] = test system: A549 (human lung carcinoma) cells; assay: In vitro cytotoxicity (Table 14); format: cell-based; conditions: A549, 72 h
Procedure: as §5

[17] = test system: B16-F10 (murine melanoma) cells; assay: In vitro cytotoxicity (Table 14); format: cell-based; conditions: Mus musculus, B16-F10, 72 h
Procedure: as §5

fungi = conditions: reported; cited from earlier work
B16 melanoma = conditions: reported; cited from earlier work
[18] = 0.1 mg/kg/day ip, significant if T/C ≥ 125%
[19] = 0.3 mg/kg/day ip, *2 significant, T/C ≥ 125%
[20] = 1 mg/kg/day ip, *2 significant, T/C ≥ 125%
[21] = 3 mg/kg/day ip, *2 significant, T/C ≥ 125%

Structure (SMILES): CC(=O)N1CCN(c2ccc(OCC3COC(Cn4ccnc4)(c4ccc(Cl)cc4Cl)O3)cc2)CC1 (stereo not shown) [Ketoconazole]
- MIC (A. flavus FA21436): 0.4 µg/mL (≈ 0.753 µM)
- MIC [1]: 1.6 µg/mL (≈ 3.01 µM)
- MIC (Candida albicans IAM4888): 50 µg/mL (≈ 94.1 µM)
- MIC [2]: 0.4 µg/mL (≈ 0.753 µM)
- MIC (C. albicans A9540): 50 µg/mL (≈ 94.1 µM)
- MIC (Mucor spinosus IF05317): 100 µg/mL (≈ 188 µM)
- MIC (T. mentagrophytes #4329): 1.6 µg/mL (≈ 3.01 µM)
- MIC [3]: 0.4 µg/mL (≈ 0.753 µM)
- MIC (Piricularia oryzae D91): 3.1 µg/mL (≈ 5.83 µM)
- MIC [4]: 1.6 µg/mL (≈ 3.01 µM)
- MIC [5]: 6.3 µg/mL (≈ 11.9 µM)
- MIC [6]: 3.1 µg/mL (≈ 5.83 µM)
- MIC (A. fumigatus IAM2034): 6.3 µg/mL (≈ 11.9 µM)
- MIC (C. neoformans IAM4514): 0.4 µg/mL (≈ 0.753 µM)
- MIC [7]: 6.3 µg/mL (≈ 11.9 µM)

Structure (SMILES): CO[C@@]12[C@H](COC(N)=O)C3=C(C(=O)C(C)=C(N)C3=O)N1C[C@@H]1N[C@@H]12 [Mitomycin C, reference compound]
- MST (median survival time) (P388 leukemia; 0.1 mg/kg/day ip): 11.5 days
- T/C (P388 leukemia; [18]): 115%
- MST (median survival time) (P388 leukemia; 0.3 mg/kg/day ip): 14.0 days
- T/C (P388 leukemia; [19]): 140%
- MST (median survival time) (P388 leukemia; 1 mg/kg/day ip): 13.5 days
- T/C (P388 leukemia; [20]): 135%
- MST (median survival time) (P388 leukemia; 3 mg/kg/day ip): 20.0 days
- T/C (P388 leukemia; [21]): 200%
- IC50 [8]: 0.5 µg/mL (≈ 1.5 µM)
- IC50 [9]: 0.8 µg/mL (≈ 2.39 µM)
- IC50 [10]: > 100 µg/mL
- MST (median survival time) (L1210 leukemia; 0.1 mg/kg/day ip): 8.5 days
- T/C (L1210 leukemia; [18]): 121%
- MST (median survival time) (L1210 leukemia; 0.3 mg/kg/day ip): 10.0 days
- T/C (L1210 leukemia; [19]): 143%
- MST (median survival time) (L1210 leukemia; 1 mg/kg/day ip): 9.5 days
- T/C (L1210 leukemia; [20]): 136%
- MST (median survival time) (L1210 leukemia; 3 mg/kg/day ip): 13.0 days
- T/C (L1210 leukemia; [21]): 186%
- IC50 [11]: 1.7 µg/mL
- IC50 [12]: 1.2 µg/mL (≈ 3.59 µM)
- IC50 [13]: > 100 µg/mL

Structure (SMILES): COc1cc([C@@H]2c3cc4c(cc3[C@@H](O[C@@H]3O[C@@H]5CO[C@@H](C)O[C@H]5[C@H](O)[C@H]3O)[C@H]3COC(=O)[C@H]23)OCO4)cc(OC)c1O [VP16, reference compound]
- IC50 [14]: 40 µg/mL (≈ 68 µM)
- IC50 [15]: 5.3 µg/mL (≈ 9 µM)
- IC50 [16]: 1.2 µg/mL (≈ 2.04 µM)
- IC50 [17]: 0.21 µg/mL (≈ 0.357 µM)

Structure (SMILES): C[C@@](O)(/C=C/[C@H]1CC=CC(=O)O1)[C@@H](C[C@@H](O)\C=C/C=C\C=C\CO)OP(=O)(O)O [fostriecin]
- antifungal activity (fungi): no antifungal activity
- antitumor effect against B16 melanoma (B16 melanoma): no antitumor effect against B16 melanoma
